{"source": "patent US20240408132A1", "about": "“HYPOHALOUS ACIDS FOR TREATING INFLAMMATORY DISEASES AND INHIBITING GROWTH OF MALIGNANCIES” (BT Manufacturing, LLC, priority 2020, published 2024)", "key": {"mouse [1]": {"tested_on": "mouse", "settings": "in vivo", "text": "(§1) Experimental exposures of rodents were done according to OECD method 423 for acute oral toxicity assessment, OECD method 434 for acute dermal toxicity and OECD method 433 for acute inhalation."}, "IL-6 [2]": {"target": "T1, IL-6 (Homo sapiens, UniProt P05231)", "T1 sequence (P05231 30-212)": "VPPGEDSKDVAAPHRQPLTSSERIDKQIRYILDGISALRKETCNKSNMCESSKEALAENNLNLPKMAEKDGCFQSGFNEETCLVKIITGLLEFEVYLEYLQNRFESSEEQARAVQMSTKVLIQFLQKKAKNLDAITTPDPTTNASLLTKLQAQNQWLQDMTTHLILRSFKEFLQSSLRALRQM", "test": "IL-6 bioassay (Promega), luminescence in receptor-expressing human cells", "type": "cell-based", "experimental": "An IL-6 bioassay (Promega) was used to determine the effect of HOCl on IL-6 binding to human cells triggering a change in luminescence. IL-6 was incubated with various concentrations of HOCl and quenched, before addition to the receptor-expressing human cells.\nBinding of the cytokine was measured by luminescence."}, "human subjects": {"tested_on": "human subjects", "test": "Safety of human volunteers exposed to microaerosolized HOCl via inhalation", "type": "in vivo", "settings": "dense microaerosols for 2-5 minutes, 400 episodes", "experimental": "The safety of exposure of human subjects to microaerosolized pure stable HOCl via the respiratory route was evaluated.\nHuman volunteers were exposed to dense microaerosols of HOCl for periods of 2-5 minutes and submitted subjective reports of the outcomes of these experiences. Data on a total of 400 such episodes were collected under medical supervision."}, "mouse [3]": {"tested_on": "mouse", "settings": "in vivo", "text": "as §1", "remark": "listed apart in the source"}, "IL-6 [4]": {"target": "T1, IL-6", "test": "ELISA of IL-6 binding to anti-IL6 antibody after exposure to HOCl or HOBr", "settings": "IL-6 exposed for 5 minutes at concentrations >2 ppm, halogen quenched before incubation", "experimental": "An ELISA assay (Fisher Scientific) was used to detect binding changes between IL6 and anti-IL6 antibody binding in the presence of HOCl or HOBr. Anti-human IL6 antibody was immobilized to a polystyrene 96 well plate as the capture antibody. IL-6 was exposed to various concentrations of HOCl or HOBr for 5 minutes. The active halogen was quenched before incubation with the coated plate wells. A second anti-human IL6 antibody was introduced to the coated wells and served as a detector to an enzyme-mediated chromophore indicator system.\nThe inhibition of IL-6 reactivity by exposure to HOCl is illustrated in FIG. 1."}}, "note": "Read-outs that look alike come from different tables or passages of the source.", "data": [{"smiles": "OCl", "note": "[HOCl, hypochlorous acid]", "values": [{"measurement": "Result/Behavior", "setting": "mouse [1]", "value": "No change"}, {"measurement": "Result/Histopathology", "setting": "mouse [1]", "value": "No"}, {"measurement": "capacity of the cytokine to initiate transmembrane signaling", "setting": "IL-6 [2]; IL-6 exposed to HOCl", "value": "complete inhibition"}, {"measurement": "luminescence of HOCl-treated IL-6", "setting": "IL-6 [2]; all concentrations tested, IL-6 incubated with HOCl and quenched before addition to cells", "value": "significantly reduced luminescence"}, {"measurement": "serious adverse effects", "setting": "human subjects", "value": "No serious adverse effects"}, {"measurement": "minor complaints (nose irritation, slight impact on ease of deep breathing)", "setting": "human subjects; disappeared upon cessation of exposure", "value": "approximately 3%"}, {"measurement": "Result/Behavior", "setting": "mouse [3]", "value": "No change"}, {"measurement": "Result/Histopathology", "setting": "mouse [3]", "value": "No"}, {"measurement": "binding of IL-6 to the capture antibody", "setting": "IL-6 [4]", "value": "no detectable binding"}]}, {"smiles": "OBr", "note": "[HOBr, Hypobromous acid]", "values": [{"measurement": "binding of IL-6 to the capture antibody", "setting": "IL-6 [4]", "value": "undetectable"}]}]}
